pIC50: −log10 of the molar value.

A word on the pIC50: it is the negative decadic logarithm of the IC50, by convention in mol/L.

Common to all, as to format: biochemical, human
Assay [1] concerns LDL. In words: CuSO4-induced LDL oxidation measured by TBARS formation. The note with it: CuSO4 (5 μM)-induced LDL oxidation; oleoresin concentration as lycopene; read-out: IC50 for the inhibition of TBARS formation. As to the method: (§1) Stock solutions of 1 mM of purified lycopene or of 10 mg/ml of tomato's oleoresin, were prepared in Tetrahydrofuran (THF, HPLC grade). All procedures were performed in dim light. LDL was incubated with the respective concentrations of tomato's oleoresin or with 3 μM of lycopene (3 μl/ml THF, derived from a stock solution of 1 mM) for 30 minutes at 37° C. in the dark. LDL incubated with THF alone served as control.
(§2) Oxidation of LDL was carried out in a shaking water bath at 37° C. under air, in plastic tubes (1 cm in diameter). For metal ions dependent oxidation LDL was incubated for 4 hours at 37° C. with freshly prepared CuSO4 (5 μM).
(§3) LDL oxidation was determined by measuring the amount of thiobarbituric acid reactive substances (TBARS) (See: Buege J. A. and Aust S. D. Microsomal lipid peroxidation. Methods Enzymol. 1978; 52: 302-310) and by lipid peroxides formation using a commercially available kit.
(§4) LDL (100 μg of protein/ml) was preincubated for 30 min at 37° C. with either vitamin E or lycopene in various forms. LDL oxidation was induced by the addition of 5 μM of CuSO4 and was […] for 30 min at 37° C. LDL oxidaton was measured by the TBARS assay or by measuring the inhibition of the formation of lipid peroxides. Results are shown in FIG. 1 for vitamin E inhibition and FIG. 2 for crystalline lycopene. […]

Assay [2] deals with LDL. The assay can be described thus: CuSO4-induced LDL oxidation measured by lipid peroxides formation. The note with it: CuSO4 (5 μM)-induced LDL oxidation; > = maximal concentration used did not achieve 50% inhibition. On the procedure: as §1, §2, §3, §4
For assay [3], the system named is LDL. In words: Copper ions-induced LDL oxidation, Colby equation data, readout not marked (TBARS / lipid peroxides). On the procedure: as §1, §2, §3, §4

Regarding `CC(C)=CCC/C(C)=C/C=C/C(C)=C/C=C/C(C)=C/C=C/C=C(C)/C=C/C=C(C)/C=C/C=C(\C)CCC=C(C)C` [Crystalline lycopene, lycopene], the pIC50 in the assay on LDL [1] and in the assay on LDL [2] was less than 4.30 throughout. In addition, in the assay with LDL [3] (Experiment 1: 1 μM crystalline lycopene alone), the “B = Percent control of lycopene alone” value is recorded as 0%.

On to Vitamin E, for which the negative logarithm of the IC50 (pIC50) in the assay on LDL [1] was 5.22; in the assay with LDL [2] it was 5.19. For the same compound, in the assay with LDL [3] (1 μM vitamin E alone), the “A = Percent control of vitamin E alone” value is recorded as 0%.
